Data taken from patent US20070166336A1, “Stable and palatable oral liquid sumatriptan compositions” (priority 2005, published 2007).
Where two headings read alike, the source gives them in different places.

Assays:
physchem = details: thermodynamic from solid
Experimental: By apparent solubility is meant the solubility of the sumatriptan determined visually. The materials used were sumatriptan succinate and various reagents for preparation of the buffers. Hydrochloric acid was used for preparation of the pH 2 buffer, acetate for preparation of the pH 5 buffer, phosphate for preparation of the pH 7 buffer, and carbonate for the pH 9 buffer. The concentration of the buffers was 0.1 M.
A 1 mL aliquot of each buffer was placed in a glass scintillation vial. To this volume was added a small amount of sumatriptan. Each amount of sumatriptan was weighed on a balance. Weights typically ranged from between 5 and 35 mg. After each new addition of sumatriptan, the vial was shaken and visually inspected to determine if all of the sumatriptan was in solution. When small particles of undissolved sumatriptan appeared, no further amount of sumatriptan was added. These amounts of sumatriptan added before the final addition was added together and were listed as the lower limit of each pH. The upper limit of solubility was taken to be the sum total of sumatriptan added to the buffer when undissolved sumatriptan appeared. […] The diamond symbol in FIG. 1 represents the average value between the lower and upper limit.

[1] = Stability of sumatriptan succinate in water and buffers of pH 2, 5, 7, 9 (HPLC); format: physicochemical; details: buffers with a pH of about 2 to 5, one month at 50° C. (additional studies not presented)
Experimental: After mixing thoroughly, a 1 mL aliquot was removed for high performance liquid chromatography (HPLC) analysis. The remaining volume was then split into a glass tube to be kept at room temperature, and another glass tube to be kept at 50° C. Samples were pulled periodically from the 50° C. tubes for one month and analyzed by HPLC.
As used herein, degradation in percent area by area is that amount of degradation that is the ratio of the sum total of degradation peaks divided by the response factor (sumatriptan's standard curve slope value) multiplied by 100, and not a quantified amount of degradation.

[2] = Characterization of unknown oxidation impurity (LC-MS, HPLC); format: physicochemical
Experimental: HPLC conditions were the same as that for impurity C and D analysis, and the product peaks were injected into an electrospray ionization mass spectrometer.
To confirm whether oxidation of sumatriptan would lead to the formation of this impurity, sumatriptan succinate was incubated with 25% H2O2 for 2 hours and 24 hours followed by LC-MS analysis.
To test the presence of this impurity in sumatriptan succinate procured from different vendors, solid sumatriptan in powder form as well as sumatriptan dissolved in water were analyzed by HPLC.

[3] = Formulation at different pH: impurities after two weeks at 50° C.; format: physicochemical; details: unbuffered (self-buffering)
Experimental: Sumatriptan succinate has a self-buffering capacity due to it being a succinic acid salt.
These formulations were kept on stability studies at 50° C. for two weeks.
Levels of each impurity are expressed as percentage (w/w) of sumatriptan, and RT is the retention time in minutes.

[4] = cited from earlier work
[5] = pH 5
Experimental: The percent of sumatriptan recovered, i.e., the experimentally determined amount (mg/mL) of sumatriptan divided by the theoretical amount present at each stage, is also provided.
The final stage of the excipient screen was used to establish a compatible preservative. […] Specifically, Stage II samples were removed and split into two tubes each containing 2.5 mL and the remaining solution kept as a control. […] These solutions were then stored at 50° C. for one month and periodically analyzed by HPLC.
The stability and solubility of sumatriptan compositions in acetate buffer with the preservative was also tested. These samples were mixed in a 1:1 ratio.

For `CNS(=O)(=O)Cc1ccc2[nH]cc(CCN(C)C)c2c1.O=C(O)CCC(=O)O` [Sumatriptan succinate, 3-[2-(dimethylamino)ethyl]-N-methyl-indole-5-methanesulfonamide succinate (1:1)], which solubility (physchem; aqueous buffer, apparent solubility) is on record?
The solubility was 100 to 115 mg/mL.

And the solubility (physchem; pH 2, simulated gastric fluid, Apparent solubility, Lower Limit)?
Its solubility is 149 mg/mL.

And the solubility (physchem; pH 2, simulated gastric fluid, Apparent solubility, Upper Limit)?
Its solubility is 162 mg/mL.

And the solubility (physchem; pH 5, aqueous buffer, Apparent solubility, Lower Limit)?
The solubility was 110 mg/mL.

What about the solubility (physchem; pH 5, aqueous buffer, Apparent solubility, Upper Limit) of the same molecule?
The solubility was 120 mg/mL.

What about the solubility (physchem; pH 7, aqueous buffer, Apparent solubility, Lower Limit) of the same molecule?
Its solubility is 138 mg/mL.

And the solubility (physchem; pH 7, aqueous buffer, Apparent solubility, Upper Limit)?
The solubility was 151 mg/mL.

What about the solubility (physchem; pH 9, aqueous buffer, Apparent solubility, Lower Limit) of the same molecule?
The solubility was 138 mg/mL.

And the solubility (physchem; pH 9, aqueous buffer, Apparent solubility, Upper Limit)?
The solubility was 140 mg/mL.

What about the degradation [1] of the same molecule?
Its degradation is 1.5%.

And the “oxidation impurity (chromatogram)” value ([2]; 25% v/v H2O2 solution at room temperature for 2 hours)?
Its value is “formation of the oxidation impurity”.

What about the “oxidation impurity (HPLC)” value ([2]; aqueous solution at 50° C. for two weeks) of the same molecule?
Its value is “formed upon incubation”.

And the “oxidation impurity (chromatogram)” value ([2]; solid powder at 4° C.)?
Its value is “not present”.

And the “oxidation impurity (chromatogram)” value ([2]; solid powder at 50° C.)?
The value was “not present”.

What about the pH of solutions [3] of the same molecule?
The pH of solutions was 4.5-5.

And the bioavailability ([4]; 6 mg subcutaneous injection)?
The bioavailability was 97%.

And the bioavailability ([4]; 20 mg nasal spray)?
The bioavailability was 17%.

And the Tmax ([4]; 50 mg tablet)?
The Tmax was 2.5 h.

What about the elimination half-life ([4]; in vivo) of the same molecule?
The elimination half-life was “about 2 hours”.

And the Tmax ([4]; nasal spray)?
The Tmax was 1 h.

And the absolute bioavailability ([4]; oral administration)?
The absolute bioavailability was “about 14%”.

And the Tmax ([4]; subcutaneous injection)?
Its Tmax is 0.2 h.

Which “Percent Degradation After 1 month at 50° C.” value [5] does the source give for HPMC here?
The value was 0.64%.

Which “Percent Degradation After 1 month at 50° C.” value [5] does the source give for PEG 400 here?
The value was 14%.

Which “Percent Degradation After 1 month at 50° C.” value [5] does the source give for Tween ™ 80 here?
The value was 0.49%.

With Xanthan Gum as the molecule, how does the “Percent Degradation After 1 month at 50° C.” value [5] read?
Its value is 0.07%.
